In article PMC10600239, “Selective MCL-1 inhibitor ABBV-467 is efficacious in tumor models but is associated with cardiac troponin increases in patients” (Communications Medicine, 2023):

Test system: AMO-1 xenografts
Assay: AMO-1 xenograft efficacy (tumor volume, body weight)
Format: in vivo, mouse
Details: SCID-beige mice bearing AMO-1 (DSMZ) flank xenografts; IV, Q7Dx2, 6.25-25 mg/kg; 5% DMSO, 10% cremophor EL, 85% D5W
Protocol: All animal studies were conducted in accordance with the guidelines approved by the Institutional Animal Care and Use Committees of AbbVie. The research protocol was approved by In Vivo Pharmacology at AbbVie prior to study initiation but was not publicly registered or disclosed. Female C.B-17 SCID-beige mice (AMO-1, OPM-2, NCI-H929, and OCI-AML2 xenografts) and female NSG mice (MV4-11-Red.Fluc systemic) were purchased from Charles River Laboratories (Wilmington, MA). Animals were housed in a light cycle-controlled room with HEPA filtration at 22 °C. Animals had nesting and climbing cage topper as the primary environmental enrichment. Animals were inoculated subcutaneously in the right flank with 5 × 10^6 (AMO-1, OPM-2, NCI-H929, and OCI-AML2) or intravenous (IV) with 5 × 10^6 (MV4-11-Red.Fluc). The inoculation volume (0.2 mL) comprised a 50:50 mixture of cells in growth media and Matrigel (BD Biosciences) for subcutaneous injections and 100% phosphate-buffered saline for IV administration. All cell lines used in this publication were authenticated using IDEXX for STR profiling as well as their IMPACT and human IMPACT panels for pathogen screening. Electronic calipers were used to measure the length and width of each tumor 2 to 3 times per week. Tumor volume was estimated by applying the following equation: volume = length × width^2/2. All groups remained blinded during measurements and dosing; only veterinary staff were aware of group identity. When tumors reached approximately 200 mm^3, mice were randomized by match and distributed into treatment and control groups. All xenograft trials were conducted using 5 to 10 mice per group, and all mice were ear tagged and monitored individually throughout the studies. […] Tumor burden in the systemic MV4-11-Red.Fluc experiment was measured using an IVIS® spectrum from PerkinElmer by taking the total photon flux of the entire dorsal side of an individual mouse. […] A background control mouse that was tumor naive but received D-Luciferin was placed in the upper left corner of each image. The total flux from this animal was subtracted from the total flux of each animal present in the image.
For in vivo studies, maximal tumor growth inhibition (TGI) was calculated as the greatest treatment response using the following equation: Maximal TGI = (1 − mean tumor volume of the treated group/mean tumor volume of the vehicle control group) × 100. The tumor growth delay (TGD) percentage was determined as the percentage increase of the median time period for the treatment group to reach an arbitrary tumor volume of 1000 mm^3 relative to the vehicle control group. […] A power analysis was conducted using historical data to determine the number of animals required to yield significance of 0.05 at a 30% difference. […] Data from experiments in vivo were analyzed using the student’s t-test for TGI values and the Mann–Whitney U test for TGD using Excel and GraphPad Prism. Fisher’s exact test was used to probe significance of differences in response frequency.

Cc1c(Cl)c2c(Cl)c(C)c1-c1c(-c3ccc(F)cc3)sc3ncnc(c13)O[C@@H](C(=O)O)Cc1cc(ccc1OCc1ccnc(-c3ccc(OC[C@H]4COCCO4)cc3)n1)OC[C@@H](CN1CCN(C)CC1)O2 [Compound A-1747745]
Results: toxicity following iv injection: A-1747745 and A-1746463 showed lethal toxicity due to drug precipitate folowing iv injection.
